Patent US4401604A, “Process for preparing thiosulfenamide derivatives of N-phosphonomethylglycine triesters” (Monsanto Company, priority 1981, dated 1983)

Columns and labels:
Test in all cases: Post-emergence herbicidal activity, greenhouse
Type in all cases: in vivo
Velvetleaf = system: Velvetleaf
How it was run: (§1)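 Herbicidal effect is scored as an index of plant injury compared with unsprayed pans, observed approximately 2 and 4 weeks after application. Treatment is a post-emergence atomized spray applied to plants two to three weeks old, at the listed rates.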

Soybean = details: Table II
How it was run: as §1

Quackgrass = details: Table I, 4 WAT
How it was run: as §1

Wild Buckwheat = details: Table II
How it was run: as §1

Panicum Spp = details: Table II
How it was run: as §1

Crabgrass = details: Table II
How it was run: as §1

Morningglory = system: Morningglory
How it was run: as §1

Johnsongrass = details: Table I, 4 WAT
How it was run: as §1

Sorghum = details: Table II
How it was run: as §1

## COC(=O)CN(CP(=O)(Oc1ccccc1)Oc1ccccc1)SSC(C)C [I, Glycine, N-[(diphenoxyphosphinyl)methyl]-N-[(1-methylethyl)dithio]-, methyl ester]
Velvetleaf; Table I, 5.6 kg/h, 4 WAT
  post-emergence herbicidal activity index: 3 (75-99% control)
Velvetleaf; Table I, 11.2 kg/h, 4 WAT
  post-emergence herbicidal activity index: 4 (100% control)
Velvetleaf; Table II, 0.056 kg/h, 2 WAT
  post-emergence herbicidal activity index: 0 (0- 24% control)
Velvetleaf; Table II, 0.28 kg/h, 2 WAT
  post-emergence herbicidal activity index: 1 (25-49% control)
Velvetleaf; Table II, 1.12 kg/h, 4 WAT
  post-emergence herbicidal activity index: 2 (50-74% control)
Velvetleaf; Table II, 5.6 kg/h, 4 WAT
  post-emergence herbicidal activity index: 4 (100% control)
Velvetleaf; Table II, 11.2 kg/h, 4 WAT
  post-emergence herbicidal activity index: 1 (25-49% control)
Soybean; 0.056 kg/h, 2 WAT
  post-emergence herbicidal activity index: 0 (0- 24% control)
Soybean; 0.28 kg/h, 2 WAT
  post-emergence herbicidal activity index: 0 (0- 24% control)
Soybean; 1.12 kg/h, 4 WAT
  post-emergence herbicidal activity index: 1 (25-49% control)
Soybean; 5.6 kg/h, 4 WAT
  post-emergence herbicidal activity index: 3 (75-99% control)
Soybean; 11.2 kg/h, 4 WAT
  post-emergence herbicidal activity index: 0 (0- 24% control)
Quackgrass; 5.6 kg/h
  post-emergence herbicidal activity index: 4 (100% control)
Quackgrass; 11.2 kg/h
  post-emergence herbicidal activity index: 3 (75-99% control)
Wild Buckwheat; 0.056 kg/h, 2 WAT
  post-emergence herbicidal activity index: 0 (0- 24% control)
Wild Buckwheat; 0.28 kg/h, 2 WAT
  post-emergence herbicidal activity index: 0 (0- 24% control)
Wild Buckwheat; 1.12 kg/h, 4 WAT
  post-emergence herbicidal activity index: 2 (50-74% control)
Wild Buckwheat; 5.6 kg/h, 4 WAT
  post-emergence herbicidal activity index: 3 (75-99% control)
Wild Buckwheat; 11.2 kg/h, 4 WAT
  post-emergence herbicidal activity index: 0 (0- 24% control)
Panicum Spp; 0.056 kg/h, 2 WAT
  post-emergence herbicidal activity index: 0 (0- 24% control)
Panicum Spp; 0.28 kg/h, 2 WAT
  post-emergence herbicidal activity index: 1 (25-49% control)
Panicum Spp; 1.12 kg/h, 4 WAT
  post-emergence herbicidal activity index: 1 (25-49% control)
Panicum Spp; 5.6 kg/h, 4 WAT
  post-emergence herbicidal activity index: 3 (75-99% control)
Panicum Spp; 11.2 kg/h, 4 WAT
  post-emergence herbicidal activity index: 3 (75-99% control)
Crabgrass; 0.056 kg/h, 2 WAT
  post-emergence herbicidal activity index: 0 (0- 24% control)
Crabgrass; 0.28 kg/h, 2 WAT
  post-emergence herbicidal activity index: 0 (0- 24% control)
Crabgrass; 1.12 kg/h, 4 WAT
  post-emergence herbicidal activity index: 3 (75-99% control)
Crabgrass; 5.6 kg/h, 4 WAT
  post-emergence herbicidal activity index: 4 (100% control)
Crabgrass; 11.2 kg/h, 4 WAT
  post-emergence herbicidal activity index: 3 (75-99% control)
Morningglory; Table I, 5.6 kg/h, 4 WAT
  post-emergence herbicidal activity index: 4 (100% control)
Morningglory; Table I, 11.2 kg/h, 4 WAT
  post-emergence herbicidal activity index: 3 (75-99% control)
Morningglory; Table II, 0.056 kg/h, 2 WAT
  post-emergence herbicidal activity index: 0 (0- 24% control)
Morningglory; Table II, 0.28 kg/h, 2 WAT
  post-emergence herbicidal activity index: 0 (0- 24% control)
Morningglory; Table II, 1.12 kg/h, 4 WAT
  post-emergence herbicidal activity index: 2 (50-74% control)
Morningglory; Table II, 5.6 kg/h, 4 WAT
  post-emergence herbicidal activity index: 3 (75-99% control)
Morningglory; Table II, 11.2 kg/h, 4 WAT
  post-emergence herbicidal activity index: 1 (25-49% control)
Johnsongrass; 5.6 kg/h
  post-emergence herbicidal activity index: 3 (75-99% control)
Johnsongrass; 11.2 kg/h
  post-emergence herbicidal activity index: 4 (100% control)
Sorghum; 0.056 kg/h, 2 WAT
  post-emergence herbicidal activity index: 0 (0- 24% control)
Sorghum; 0.28 kg/h, 2 WAT
  post-emergence herbicidal activity index: 0 (0- 24% control)
Sorghum; 1.12 kg/h, 4 WAT
  post-emergence herbicidal activity index: 1 (25-49% control)
Sorghum; 5.6 kg/h, 4 WAT
  post-emergence herbicidal activity index: 3 (75-99% control)
Sorghum; 11.2 kg/h, 4 WAT
  post-emergence herbicidal activity index: 2 (50-74% control)
